Assay results: patent US4436751A, “Nitrobenzyl monates antibacterial compounds” (Beecham Group Limited, priority 1980, dated 1984)
Values after ≈ are worked out from the molar mass of the structure shown. Like-named read-outs stand apart in the source and are kept apart here.

Columns and labels:
Type in all cases: cell-based
M. suipneumoniae JF 435 = test: Anti-mycoplasmal MIC in vitro, Friis broth agarose (Table 1); conditions: Mesomycoplasma hyopneumoniae, JF435, 144 h
M. suipneumoniae HR(2) = test: as above; conditions: Mesomycoplasma hyopneumoniae, 144 h
M. suipneumoniae Str. 11 = test: as above; conditions: Mesomycoplasma hyopneumoniae
[1] = tested on: M. suipneumoniae J2206/183b; test: as above; conditions: Mesomycoplasma hyopneumoniae, 144 h
[2] = tested on: M. suipneumoniae PW/C/210; test: as above; conditions: Mesomycoplasma hyopneumoniae, 144 h
M. suipneumoniae LABER = test: as above; conditions: Mesomycoplasma hyopneumoniae, 144 h
M. suipneumoniae OCD 1 = test: as above; conditions: Mesomycoplasma hyopneumoniae, OCD1, 144 h
M. suipneumoniae TAM 6N = test: as above; conditions: Mesomycoplasma hyopneumoniae, TAM6N, 144 h
[3] = tested on: M. suipneumoniae ATCC 25095; test: as above; conditions: Mesomycoplasma hyopneumoniae, ATCC25095, 144 h
[4] = tested on: M. suipneumoniae NCTC 10110; test: as above; conditions: Mesomycoplasma hyopneumoniae, NCTC10110, 144 h
M. hyorhinis ATCC 25021 = test: as above; conditions: Mesomycoplasma hyorhinis, ATCC25021, 144 h
M. bovis RCTC 10131 = test: microbe, parasite or virus in culture; conditions: RCTC10131, 144 h
M. dispar RCTC 10125 = test: Anti-mycoplasmal MIC in vitro, Friis broth agarose (Table 1); conditions: 144 h
[5] = tested on: Strep. suis (group D) SPS11; test: Veterinary bacteria MIC, Diagnostic Sensitivity Test Agar (Table 2); conditions: Streptococcus suis; Strep. suis (group D) SPS11; DST Agar, 10^4 organisms, 18 hours 37° C.; read-out: MIC
Experimental: The values were determined using a two fold serial dilutions in Diagnostic Sensitivity Test Agar with an inoculum of 10^4 organisms and incubation for 18 hours at 37° C.

Bacillus subtilis 6633 = test: Human bacteria MIC, nutrient agar with chocolated horse blood (Table 3); conditions: Bacillus subtilis, 6633, 18 h
Experimental: (§1) The values were determined by serial dilutions in nutrient agar with 5% chocolated horse blood after incubations for 18 hours at 37° C.

[6] = tested on: Corynebacterium xerosis 9755; test: as above
Experimental: as §1

E. Coli NCTC 10418 = test: as above; conditions: Escherichia coli
Experimental: as §1

[7] = tested on: Haemophilus influenzae Q1; test: as above; conditions: Haemophilus influenzae, Q1, 18 h
Experimental: as §1

K. aerogenes A = test: as above; conditions: Klebsiella aerogenes
Experimental: as §1

P. mirabilis 889 = test: as above
Experimental: as §1

[8] = tested on: Pasteurella multocida 1633; test: as above; conditions: Pasteurella multocida 1633; nutrient agar 5% chocolated horse blood, 18 hours 37° C.; read-out: MIC
Experimental: as §1

[9] = tested on: Ps. aeruginosa NCTC 10662; test: as above; conditions: Pseudomonas aeruginosa
Experimental: as §1

Sarcina lutea 8340 = test: as above
Experimental: as §1

Staph. aureus Oxford = test: as above; conditions: Staphylococcus aureus; Staph. aureus Oxford; nutrient agar 5% chocolated horse blood, 18 hours 37° C.; read-out: MIC
Experimental: as §1

Staph. aureus Russell = test: as above; conditions: Staphylococcus aureus; Staph. aureus Russell; nutrient agar 5% chocolated horse blood, 18 hours 37° C.; read-out: MIC
Experimental: as §1

Staph. aureus W2827 = test: as above; conditions: Staphylococcus aureus; Staph. aureus W2827; nutrient agar 5% chocolated horse blood, 18 hours 37° C.; read-out: MIC
Experimental: as §1

Strep. faecalis 1 = test: as above
Experimental: as §1

[10] = tested on: Strep. pyogenes R80/421-A; test: as above; conditions: Streptococcus pyogenes, R80/421A, 18 h
Experimental: as §1

C/C(=C\C(=O)OCc1ccccc1[N+](=O)[O-])CC1OCC(CC2OC2C(C)C(C)O)C(O)C1O (centres unmarked) [C, O--nitrobenzyl monate A, reference compound]
MIC (M. suipneumoniae JF 435): 0.5 µg/mL (≈ 1.04 µM)
MIC (M. suipneumoniae HR(2)): 0.5 µg/mL (≈ 1.04 µM)
MIC (M. suipneumoniae Str. 11; STR.11, 144 h): 0.25 µg/mL (≈ 0.521 µM)
MIC ([1]; J2206/183B): 0.5 µg/mL (≈ 1.04 µM)
MIC [2]: 0.25 µg/mL (≈ 0.521 µM)
MIC (M. suipneumoniae LABER): 0.25 µg/mL (≈ 0.521 µM)
MIC (M. suipneumoniae OCD 1): 0.5 µg/mL (≈ 1.04 µM)
MIC (M. suipneumoniae TAM 6N): 0.5 µg/mL (≈ 1.04 µM)
MIC [3]: 0.25 µg/mL (≈ 0.521 µM)
MIC [4]: 0.5 µg/mL (≈ 1.04 µM)
MIC (M. hyorhinis ATCC 25021): 0.25 µg/mL (≈ 0.521 µM)
MIC (M. bovis RCTC 10131): ≤ 0.01 µg/mL
MIC (M. dispar RCTC 10125): 0.1 µg/mL (≈ 0.209 µM)
MIC [5]: 20 µg/mL (≈ 41.7 µM)
MIC (Bacillus subtilis 6633): 2.5 µg/mL (≈ 5.21 µM)
MIC ([6]; Corynebacterium xerosis, 9755, 18 h): > 100 µg/mL
MIC (E. Coli NCTC 10418; NCTC10418, 18 h): > 100 µg/mL
MIC [7]: 0.5 µg/mL (≈ 1.04 µM)
MIC (K. aerogenes A; 18 h): > 100 µg/mL
MIC (P. mirabilis 889; Proteus mirabilis, 889, 18 h): > 100 µg/mL
MIC [8]: 2.5 µg/mL (≈ 5.21 µM)
MIC ([9]; NCTC10662, 18 h): > 100 µg/mL
MIC (Sarcina lutea 8340; Micrococcus luteus, 8340, 18 h): > 100 µg/mL
MIC (Staph. aureus Oxford): 2.5 µg/mL (≈ 5.21 µM)
MIC (Staph. aureus Russell): 2.5 µg/mL (≈ 5.21 µM)
MIC (Staph. aureus W2827): 5 µg/mL (≈ 10.4 µM)
MIC (Strep. faecalis 1; Enterococcus faecalis, 1, 18 h): > 100 µg/mL
MIC [10]: 0.5 µg/mL (≈ 1.04 µM)

C/C(=C\C(=O)OC(C)c1cccc([N+](=O)[O-])c1)CC1OCC(CC2OC2C(C)C(C)O)C(O)C1O (centres unmarked) [Example 3, 1-(m-nitrophenyl)ethyl monate A]
MIC (M. suipneumoniae JF 435; M. suipneumoniae JF 435, in vitro, 6 days 37° C., read-out: MIC): 0.25 µg/mL (≈ 0.507 µM)
MIC (M. suipneumoniae HR(2); M. suipneumoniae HR(2), in vitro, 6 days 37° C., read-out: MIC): 0.25 µg/mL (≈ 0.507 µM)
MIC (M. suipneumoniae Str. 11; 144 h, M. suipneumoniae Str. 11, in vitro, 6 days 37° C., read-out: MIC): 0.1 µg/mL (≈ 0.203 µM)
MIC ([1]; M. suipneumoniae J2206/183b, in vitro, 6 days 37° C., read-out: MIC): 0.25 µg/mL (≈ 0.507 µM)
MIC ([2]; M. suipneumoniae PW/C/210, in vitro, 6 days 37° C., read-out: MIC): 0.1 µg/mL (≈ 0.203 µM)
MIC (M. suipneumoniae LABER; M. suipneumoniae LABER, in vitro, 6 days 37° C., read-out: MIC): 0.1 µg/mL (≈ 0.203 µM)
MIC (M. suipneumoniae OCD 1; M. suipneumoniae OCD 1, in vitro, 6 days 37° C., read-out: MIC): 0.25 µg/mL (≈ 0.507 µM)
MIC (M. suipneumoniae TAM 6N; M. suipneumoniae TAM 6N, in vitro, 6 days 37° C., read-out: MIC): 0.25 µg/mL (≈ 0.507 µM)
MIC ([3]; M. suipneumoniae ATCC 25095, in vitro, 6 days 37° C., read-out: MIC): 0.1 µg/mL (≈ 0.203 µM)
MIC ([4]; M. suipneumoniae NCTC 10110, in vitro, 6 days 37° C., read-out: MIC): 0.25 µg/mL (≈ 0.507 µM)
MIC (M. hyorhinis ATCC 25021; M. hyorhinis ATCC 25021, in vitro, 6 days 37° C., read-out: MIC): 0.1 µg/mL (≈ 0.203 µM)
MIC (M. bovis RCTC 10131): 0.025 µg/mL (≈ 0.0507 µM)
MIC (M. dispar RCTC 10125): 0.05 µg/mL (≈ 0.101 µM)
MIC [5]: 40 µg/mL (≈ 81 µM)
MIC (Bacillus subtilis 6633): 1 µg/mL (≈ 2.03 µM)
MIC ([6]; Corynebacterium xerosis 9755, nutrient agar 5% chocolated horse blood, 18 hours 37° C., read-out: MIC): > 100 µg/mL
MIC (E. Coli NCTC 10418; NCTC10418, E. coli NCTC 10418, nutrient agar 5% chocolated horse blood, 18 hours 37° C., read-out: MIC): > 100 µg/mL
MIC [7]: 1 µg/mL (≈ 2.03 µM)
MIC (K. aerogenes A; K. aerogenes A, nutrient agar 5% chocolated horse blood, 18 hours 37° C., read-out: MIC): > 100 µg/mL
MIC (P. mirabilis 889; Proteus mirabilis, P. mirabilis 889, nutrient agar 5% chocolated horse blood, 18 hours 37° C., read-out: MIC): > 100 µg/mL
MIC [8]: 25 µg/mL (≈ 50.7 µM)
MIC ([9]; NCTC10662, Ps. aeruginosa NCTC 10662, nutrient agar 5% chocolated horse blood, 18 hours 37° C., read-out: MIC): > 100 µg/mL
MIC (Sarcina lutea 8340; Micrococcus luteus, Sarcina lutea 8340, nutrient agar 5% chocolated horse blood, 18 hours 37° C., read-out: MIC): > 100 µg/mL
MIC (Staph. aureus Oxford): 2.5 µg/mL (≈ 5.07 µM)
MIC (Staph. aureus Russell): 2.5 µg/mL (≈ 5.07 µM)
MIC (Staph. aureus W2827): 5 µg/mL (≈ 10.1 µM)
MIC (Strep. faecalis 1; Enterococcus faecalis, Strep. faecalis 1, nutrient agar 5% chocolated horse blood, 18 hours 37° C., read-out: MIC): > 100 µg/mL
MIC [10]: 1 µg/mL (≈ 2.03 µM)
